Measurements: PubChem BioAssay (NCI)
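In this assay, cells in 96-well plates receive the compound at five concentrations for 48 hours. Endpoints are linearly interpolated between the surrounding concentrations. TGI is the concentration that stops growth completely.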

Legend:
Experiment in all cases: inhibition of tumour cell growth, NCI panel, 48 h
SF-268 CNS = test system: SF-268 CNS
CCRF-CEM leukemia = test system: CCRF-CEM leukemia
LXFL 529 NSCLC = test system: LXFL 529 NSCLC
KM12 colon = test system: KM12 colon
SK-MEL-5 melanoma = test system: SK-MEL-5 melanoma
SN12C renal = test system: SN12C renal
A498 renal = test system: A498 renal
SNB-75 CNS = test system: SNB-75 CNS
M14 melanoma = test system: M14 melanoma
786-0 renal = test system: 786-0 renal
CAKI-1 renal = test system: CAKI-1 renal
RXF-631 renal = test system: RXF-631 renal
LOX IMVI melanoma = test system: LOX IMVI melanoma
HCT-15 colon = test system: HCT-15 colon
NCI-H226 lung = test system: NCI-H226 lung
SNB-78 CNS = test system: SNB-78 CNS
M19-MEL melanoma = test system: M19-MEL melanoma
DMS 273 small cell lung = test system: DMS 273 small cell lung
U251 CNS = test system: U251 CNS
OVCAR-4 ovarian = test system: OVCAR-4 ovarian
SW-620 colon = test system: SW-620 colon
RXF 393 renal = test system: RXF 393 renal
ACHN renal = test system: ACHN renal
HOP-18 NSCLC = test system: HOP-18 NSCLC
XF 498 CNS = test system: XF 498 CNS
KM20L2 colon = test system: KM20L2 colon
UACC-257 melanoma = test system: UACC-257 melanoma
DLD-1 colon = test system: DLD-1 colon
RPMI-8226 leukemia = test system: RPMI-8226 leukemia
HOP-92 NSCLC = test system: HOP-92 NSCLC
MALME-3M melanoma = test system: MALME-3M melanoma
NCI-H522 lung = test system: NCI-H522 lung
HT29 colon = test system: HT29 colon
EKVX NSCLC = test system: EKVX NSCLC
HCC-2998 colon = test system: HCC-2998 colon
IGROV1 ovarian = test system: IGROV1 ovarian
COLO 205 colon = test system: COLO 205 colon
HL-60(TB) leukemia = test system: HL-60(TB) leukemia
K-562 leukemia = test system: K-562 leukemia
A549 NSCLC = test system: A549 NSCLC
SK-MEL-2 melanoma = test system: SK-MEL-2 melanoma
MOLT-4 leukemia = test system: MOLT-4 leukemia
SK-OV-3 ovarian = test system: SK-OV-3 ovarian
SNB-19 CNS = test system: SNB-19 CNS
SF-539 CNS = test system: SF-539 CNS
SF-295 CNS = test system: SF-295 CNS
OVCAR-8 ovarian = test system: OVCAR-8 ovarian
UO-31 renal = test system: UO-31 renal
TK-10 renal = test system: TK-10 renal
OVCAR-3 ovarian = test system: OVCAR-3 ovarian
HCT-116 colon = test system: HCT-116 colon
HOP-62 NSCLC = test system: HOP-62 NSCLC
UACC-62 melanoma = test system: UACC-62 melanoma
DMS 114 small cell lung = test system: DMS 114 small cell lung
SK-MEL-28 melanoma = test system: SK-MEL-28 melanoma
NCI-H23 lung = test system: NCI-H23 lung
NCI-H460 lung = test system: NCI-H460 lung
OVCAR-5 ovarian = test system: OVCAR-5 ovarian

**Q.** Which TGI (SF-268 CNS) does the source give for `CC(=O)Nc1ccccc1S(=O)(=O)c1ccccc1` here?
**A.** Its TGI is greater than 100 µM.

**Q.** And the TGI (CCRF-CEM leukemia)?
**A.** Its TGI is greater than 100 µM.

**Q.** What about the TGI (LXFL 529 NSCLC) of the same compound?
**A.** The TGI was greater than 100 µM.

**Q.** And the TGI (KM12 colon)?
**A.** The TGI was greater than 100 µM.

**Q.** What about the TGI (SK-MEL-5 melanoma) of the same compound?
**A.** Its TGI is greater than 100 µM.

**Q.** What about the TGI (SN12C renal) of the same compound?
**A.** Its TGI is greater than 100 µM.

**Q.** What about the TGI (A498 renal) of the same compound?
**A.** The TGI was greater than 100 µM.

**Q.** What about the TGI (SNB-75 CNS) of the same compound?
**A.** Its TGI is greater than 100 µM.

**Q.** What about the TGI (M14 melanoma) of the same compound?
**A.** The TGI was greater than 100 µM.

**Q.** And the TGI (786-0 renal)?
**A.** The TGI was greater than 100 µM.

**Q.** What about the TGI (CAKI-1 renal) of the same compound?
**A.** The TGI was greater than 100 µM.

**Q.** And the TGI (RXF-631 renal)?
**A.** The TGI was greater than 100 µM.

**Q.** What about the TGI (LOX IMVI melanoma) of the same compound?
**A.** Its TGI is greater than 100 µM.

**Q.** And the TGI (HCT-15 colon)?
**A.** The TGI was greater than 100 µM.

**Q.** What about the TGI (NCI-H226 lung) of the same compound?
**A.** Its TGI is greater than 100 µM.

**Q.** And the TGI (SNB-78 CNS)?
**A.** Its TGI is greater than 100 µM.

**Q.** What about the TGI (M19-MEL melanoma) of the same compound?
**A.** Its TGI is greater than 100 µM.

**Q.** And the TGI (DMS 273 small cell lung)?
**A.** The TGI was greater than 100 µM.

**Q.** And the TGI (U251 CNS)?
**A.** The TGI was greater than 100 µM.

**Q.** And the TGI (OVCAR-4 ovarian)?
**A.** Its TGI is greater than 100 µM.

**Q.** What about the TGI (SW-620 colon) of the same compound?
**A.** The TGI was greater than 100 µM.

**Q.** And the TGI (RXF 393 renal)?
**A.** The TGI was greater than 100 µM.

**Q.** And the TGI (ACHN renal)?
**A.** The TGI was greater than 100 µM.

**Q.** What about the TGI (HOP-18 NSCLC) of the same compound?
**A.** Its TGI is greater than 100 µM.

**Q.** And the TGI (XF 498 CNS)?
**A.** The TGI was greater than 100 µM.

**Q.** And the TGI (KM20L2 colon)?
**A.** The TGI was greater than 100 µM.

**Q.** And the TGI (UACC-257 melanoma)?
**A.** Its TGI is greater than 100 µM.

**Q.** What about the TGI (DLD-1 colon) of the same compound?
**A.** The TGI was greater than 100 µM.

**Q.** And the TGI (RPMI-8226 leukemia)?
**A.** The TGI was greater than 100 µM.

**Q.** What about the TGI (HOP-92 NSCLC) of the same compound?
**A.** Its TGI is greater than 100 µM.

**Q.** What about the TGI (MALME-3M melanoma) of the same compound?
**A.** The TGI was greater than 100 µM.

**Q.** And the TGI (NCI-H522 lung)?
**A.** The TGI was greater than 100 µM.

**Q.** What about the TGI (HT29 colon) of the same compound?
**A.** Its TGI is greater than 100 µM.

**Q.** And the TGI (EKVX NSCLC)?
**A.** The TGI was greater than 100 µM.

**Q.** What about the TGI (HCC-2998 colon) of the same compound?
**A.** Its TGI is greater than 100 µM.

**Q.** What about the TGI (IGROV1 ovarian) of the same compound?
**A.** The TGI was greater than 100 µM.

**Q.** And the TGI (COLO 205 colon)?
**A.** The TGI was greater than 100 µM.

**Q.** And the TGI (HL-60(TB) leukemia)?
**A.** The TGI was greater than 100 µM.

**Q.** What about the TGI (K-562 leukemia) of the same compound?
**A.** The TGI was greater than 100 µM.

**Q.** And the TGI (A549 NSCLC)?
**A.** The TGI was greater than 100 µM.

**Q.** And the TGI (SK-MEL-2 melanoma)?
**A.** The TGI was greater than 100 µM.

**Q.** What about the TGI (MOLT-4 leukemia) of the same compound?
**A.** The TGI was greater than 100 µM.

**Q.** What about the TGI (SK-OV-3 ovarian) of the same compound?
**A.** The TGI was greater than 100 µM.

**Q.** And the TGI (SNB-19 CNS)?
**A.** Its TGI is greater than 100 µM.

**Q.** And the TGI (SF-539 CNS)?
**A.** The TGI was greater than 100 µM.

**Q.** What about the TGI (SF-295 CNS) of the same compound?
**A.** The TGI was greater than 100 µM.

**Q.** And the TGI (OVCAR-8 ovarian)?
**A.** Its TGI is greater than 100 µM.

**Q.** And the TGI (UO-31 renal)?
**A.** Its TGI is greater than 100 µM.

**Q.** And the TGI (TK-10 renal)?
**A.** The TGI was greater than 100 µM.

**Q.** And the TGI (OVCAR-3 ovarian)?
**A.** Its TGI is greater than 100 µM.

**Q.** And the TGI (HCT-116 colon)?
**A.** Its TGI is greater than 100 µM.

**Q.** What about the TGI (HOP-62 NSCLC) of the same compound?
**A.** The TGI was greater than 100 µM.

**Q.** And the TGI (UACC-62 melanoma)?
**A.** Its TGI is greater than 100 µM.

**Q.** And the TGI (DMS 114 small cell lung)?
**A.** The TGI was greater than 100 µM.

**Q.** What about the TGI (SK-MEL-28 melanoma) of the same compound?
**A.** Its TGI is greater than 100 µM.

**Q.** What about the TGI (NCI-H23 lung) of the same compound?
**A.** Its TGI is greater than 100 µM.

**Q.** And the TGI (NCI-H460 lung)?
**A.** Its TGI is greater than 100 µM.

**Q.** What about the TGI (OVCAR-5 ovarian) of the same compound?
**A.** Its TGI is 5.65 µM.
